As usually defined, the DC50 is the concentration at which degradation of the target reaches its halfway point. A word on the Dmax: it is the largest share of the target that was removed.

Read-outs that look alike come from different tables or passages of the source.

In one test the test system is Mino cells. Description: Antiproliferative effect, MTS cell viability assay, Mino cells. The format is cell-based. Particulars: Mino mantle cell lymphoma cells, read-out: IC50 (anti-proliferation) Mino cells. The method, then: (§1) Antiproliferative effect of the exemplary compounds was assessed in B-cell malignancy models.
(§2) To assess the effect of the exemplary compounds on cell viability in B-cell malignancy models by degradation of BTK protein, Mino and JeKo-1 cells were treated with varying concentrations of Ibrutinib (0, 0.001, 0.01, 0.1, 1, 10 μM). Under these conditions, cell viability was determined by an MTS assay. Cytotoxicity was assayed by the determination of reduced tetrazolium (formazan) created by metabolically active cells as detected at 490 nm absorbance using a microplate reader (BMG Labtech, Cary, NC, USA).
(§3) The exemplary compounds attenuated the viability of Mino and JeKo-1 cells in a concentration-dependent manner at 72 h post treatment. Results are shown in Table 1 for each exemplary compound.

For a further test, the target named is BTK (Homo sapiens, UniProt Q06187). Description: Degradation of BTK protein in Namalwa cells (Western blot; DC50, Dmax). In general terms: Immunoblotting shows a protein as a band on a membrane.
The test system of another test is JeKo-1 cells. Description: Antiproliferative effect, MTS cell viability assay, JeKo-1 cells. The format is cell-based. Particulars: JeKo-1 mantle cell lymphoma cells, read-out: IC50 (anti-proliferation) JeKO-1 cells. As to the method:
as §1, §2, §3
(Tetrazolium assays rely on reduction of a dye to a coloured formazan, in cell work by metabolically active cells.)

The mark [1] stands for this setting: read-out: DC50 (BTK degradation), concentration giving 50% reduction of BTK expression level, cell line not given.
The mark [2] stands for this setting: BTK degradation, cell line not given.

BTK, sequence (Q06187 whole entry): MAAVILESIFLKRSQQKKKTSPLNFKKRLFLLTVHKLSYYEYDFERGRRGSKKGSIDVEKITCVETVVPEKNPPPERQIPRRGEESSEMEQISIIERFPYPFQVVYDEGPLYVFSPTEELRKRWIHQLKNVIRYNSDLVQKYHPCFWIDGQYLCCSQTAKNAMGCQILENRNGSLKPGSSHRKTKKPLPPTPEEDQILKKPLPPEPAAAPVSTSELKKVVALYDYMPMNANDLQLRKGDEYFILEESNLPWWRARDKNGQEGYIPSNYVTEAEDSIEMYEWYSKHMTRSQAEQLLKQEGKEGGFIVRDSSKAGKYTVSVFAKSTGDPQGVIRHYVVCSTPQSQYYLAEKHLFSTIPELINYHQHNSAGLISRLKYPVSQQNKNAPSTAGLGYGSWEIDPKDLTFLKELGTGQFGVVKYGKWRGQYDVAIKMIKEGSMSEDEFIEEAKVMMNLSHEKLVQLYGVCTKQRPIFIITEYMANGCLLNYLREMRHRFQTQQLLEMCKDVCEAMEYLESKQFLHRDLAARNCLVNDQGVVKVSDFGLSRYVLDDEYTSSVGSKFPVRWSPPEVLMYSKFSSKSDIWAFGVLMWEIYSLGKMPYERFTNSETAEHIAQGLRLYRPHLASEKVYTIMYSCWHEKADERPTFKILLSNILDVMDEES

For the molecule `Nc1ncnc2c1c(-c1ccc(Oc3ccccc3)cc1)nn2C1CCN(CCN2CCC(N3CCN(c4ccc5c(c4)C(=O)N(C4CCC(=O)NC4=O)C5=O)CC3)C2)CC1` (single isomer, unassigned) [Compound 459a, 5-(4-(1-(2-(4-(4-amino-3-(4-phenoxyphenyl)-1H-pyrazolo[3,4-d]pyrimidin-1-yl)piperidin-1-yl)ethyl)pyrrolidin-3-yl)piperazin-1-yl)-2-(2,6-dioxopiperidin-3-yl)isoindoline-1,3-dione], the IC50 in the test on Mino cells (Homo sapiens, MINO) was less than 1000 nM; with JeKo-1 cells (Homo sapiens), less than 1000 nM. In addition, on BTK (setting [1]), the DC50 fell in the range of 10 to 50 nM. Also, the Dmax on BTK (read-out: Dmax (BTK degradation)) was more than 90%.

For `Nc1ncnc2c1c(-c1ccc(Oc3ccccc3)cc1)nn2C1CCN(CCN2CCC(N3CCN(c4ccc5c(c4)C(=O)N(C4CCC(=O)NC4=O)C5=O)CC3)C2)CC1` (single isomer, unassigned) [Compound 459b, 5-(4-(1-(2-(4-(4-amino-3-(4-phenoxyphenyl)-1H-pyrazolo[3,4-d]pyrimidin-1-yl)piperidin-1-yl)ethyl)pyrrolidin-3-yl)piperazin-1-yl)-2-(2,6-dioxopiperidin-3-yl)isoindoline-1,3-dione], the IC50 in the test on Mino cells and with JeKo-1 cells was less than 1000 nM each time. The “Dmax (BTK degradation)” value on BTK (cell line not given) was “A (A >90%)”. Further, the DC50 at BTK (setting [1]) is less than 10 nM.

With `Nc1ncnc2c1c(-c1ccc(Oc3ccccc3)cc1)nn2C1CCN(C2CCN(CC3CCN(c4ccc5c(c4)C(=O)N(C4CCC(=O)NC4=O)C5=O)CC3)CC2)CC1` (stereo in doubt) [Compound 213b, (S)-5-(4-((4-(4-amino-3-(4-phenoxyphenyl)-1H-pyrazolo[3,4-d]pyrimidin-1-yl)-[1,4′-bipiperidin]-1′-yl)methyl)piperidin-1-yl)-2-(2,6-dioxopiperidin-3-yl)isoindoline-1,3-dione], the IC50 in the test with Mino cells and in the test on JeKo-1 cells was less than 1000 nM in each case. The DC50 on BTK (setting [2]) is less than 10 nM.

As for `Nc1ncnc2c1c(-c1ccc(Oc3ccccc3)cc1)nn2[C@@H]1CCCN(C2CCN(C(=O)N3CCC(CCCC4CCN(c5ccc6c(c5)C(=O)N(C5CCC(=O)NC5=O)C6=O)CC4)CC3)CC2)C1` (stereo partly drawn) [Compound 195, 5-(4-(3-(1-((R)-3-(4-amino-3-(4-phenoxyphenyl)-1H-pyrazolo[3,4-d]pyrimidin-1-yl)-[1,4′-bipiperidine]-1′-carbonyl)piperidin-4-yl)propyl)piperidin-1-yl)-2-(2,6-dioxopiperidin-3-yl)isoindoline-1,3-dione], the IC50 in the test on Mino cells (Homo sapiens, MINO) is more than 10000 nM; with JeKo-1 cells (Homo sapiens) it was 1000 to 10000 nM. For the same molecule, at BTK, the Dmax was more than 75%. Further, the DC50 on BTK (setting [2]) was more than 50 nM.

For `Nc1ncnc2c1c(-c1ccc(Oc3ccccc3)cc1)nn2[C@@H]1CCCN(C2CCN(C(=O)N3CCC(CCCC4CCN(c5ccc6c(c5)CN(C5CCC(=O)NC5=O)C6=O)CC4)CC3)CC2)C1` (stereo partly drawn) [Compound 196, 3-(5-(4-(3-(1-((R)-3-(4-amino-3-(4-phenoxyphenyl)-1H-pyrazolo[3,4-d]pyrimidin-1-yl)-[1,4′-bipiperidine]-1′-carbonyl)piperidin-4-yl)propyl)piperidin-1-yl)-1-oxoisoindolin-2-yl)piperidine-2,6-dione], the IC50 with Mino cells (Homo sapiens, MINO) is 1000 to 10000 nM; in the test on JeKo-1 cells (Homo sapiens) it was 1000 to 10000 nM. This molecule registered a Dmax at BTK of more than 75%. The molecule also displayed a DC50 on BTK (setting [2]) of 10 to 50 nM.

With `Nc1ncnc2c1c(-c1ccc(Oc3ccccc3)cc1)nn2[C@@H]1CCCN(C2CCN(C(=O)N3CCC(CCCN4CCC(c5ccc6c(c5)C(=O)N(C5CCC(=O)NC5=O)C6=O)CC4)CC3)CC2)C1` (stereo partly drawn) [Compound 197, 5-(1-(3-(1-((R)-3-(4-amino-3-(4-phenoxyphenyl)-1H-pyrazolo[3,4-d]pyrimidin-1-yl)-[1,4′-bipiperidine]-1′-carbonyl)piperidin-4-yl)propyl)piperidin-4-yl)-2-(2,6-dioxopiperidin-3-yl)isoindoline-1,3-dione], the IC50 with Mino cells (Homo sapiens, MINO) was 1000 to 10000 nM; with JeKo-1 cells (Homo sapiens) it was more than 10000 nM. On BTK, this molecule had a Dmax of more than 75%. On BTK (setting [2]), this molecule came in with a DC50 of 10 to 50 nM.

With `Nc1ncnc2c1c(-c1ccc(Oc3ccccc3)cc1)nn2[C@@H]1CCCN(C2CCN(C(=O)N3CCC(CCCN4CCC(c5ccc6c(c5)CN(C5CCC(=O)NC5=O)C6=O)CC4)CC3)CC2)C1` (stereo partly drawn) [Compound 198, 3-(5-(1-(3-(1-((R)-3-(4-amino-3-(4-phenoxyphenyl)-1H-pyrazolo[3,4-d]pyrimidin-1-yl)-[1,4′-bipiperidine]-1′-carbonyl)piperidin-4-yl)propyl)piperidin-4-yl)-1-oxoisoindolin-2-yl)piperidine-2,6-dione], the IC50 in the test with Mino cells (Homo sapiens, MINO) fell in the range of 1000 to 10000 nM; with JeKo-1 cells (Homo sapiens), 1000 to 10000 nM. Besides, the Dmax on BTK is more than 75%. Moreover, on BTK (setting [2]), the DC50 was 10 to 50 nM.

Take `Nc1ncnc2c1c(-c1ccc(Oc3ccccc3)cc1)nn2C1CCN(CC2CCN(CC3CCN(c4ccc5c(c4)C(=O)N(C4CCC(=O)NC4=O)C5=O)CC3)CC2)CC1` (centres unmarked) [Compound 199, 5-(4-((4-((4-(4-amino-3-(4-phenoxyphenyl)-1H-pyrazolo(3,4-d)pyrimidin-1-yl)piperidin-1-yl)methyl)piperidin-1-yl)methyl)piperidin-1-yl)-2-(2,6-dioxopiperidin-3-yl)isoindoline-1,3-dione]: the IC50 was less than 1000 nM in the test on Mino cells (Homo sapiens, MINO) and 1000 to 10000 nM in the test on JeKo-1 cells (Homo sapiens). Further, the Dmax at BTK was more than 90%. Further, the 50% degradation concentration (DC50) on BTK (setting [2]) lay within 10 to 50 nM.

On to `Nc1ncnc2c1c(-c1ccc(Oc3ccccc3)cc1)nn2C1CCN(CC2CCN(CC3CCN(c4ccc5c(c4)CN(C4CCC(=O)NC4=O)C5=O)CC3)CC2)CC1` (centres unmarked) [Compound 200, 3-(5-(4-((4-((4-(4-amino-3-(4-phenoxyphenyl)-1H-pyrazolo(3,4-d)pyrimidin-1-yl)piperidin-1-yl)methyl)piperidin-1-yl)methyl)piperidin-1-yl)-1-oxoisoindolin-2-yl)piperidine-2,6-dione], for which the IC50 with Mino cells (Homo sapiens) and with JeKo-1 cells (Homo sapiens) was 1000 to 10000 nM in each case. This molecule registered a Dmax at BTK of less than 50%. At BTK (setting [2]), this molecule registered a DC50 of more than 50 nM. Besides, the “degradation of BTK protein” value at BTK (Namalwa B lymphocyte cells, various concentrations, 24 hours, Western blot) is “dose-dependent degradation”.

`Nc1ncnc2c1c(-c1ccc(Oc3ccccc3)cc1)nn2C1CCN(CC2CCN(CCC3CCN(c4ccc5c(c4)C(=O)N(C4CCC(=O)NC4=O)C5=O)CC3)CC2)CC1` (centres unmarked) [Compound 201, 5-(4-(2-(4-((4-(4-amino-3-(4-phenoxyphenyl)-1H-pyrazolo[3,4-d]pyrimidin-1-yl)piperidin-1-yl)methyl)piperidin-1-yl)ethyl)piperidin-1-yl)-2-(2,6-dioxopiperidin-3-yl)isoindoline-1,3-dione]: the IC50 was in the range of 1000 to 10000 nM with Mino cells (Homo sapiens, MINO) and 1000 to 10000 nM with JeKo-1 cells (Homo sapiens). This molecule showed a Dmax at BTK of more than 90%. The DC50 at BTK (setting [2]) lay within 10 to 50 nM.

For the molecule `Nc1ncnc2c1c(-c1ccc(Oc3ccccc3)cc1)nn2C1CCN(CC2CCN(CCC3CCN(c4ccc5c(c4)CN(C4CCC(=O)NC4=O)C5=O)CC3)CC2)CC1` (centres unmarked) [Compound 202, 3-(5-(4-(2-(4-((4-(4-amino-3-(4-phenoxyphenyl)-1H-pyrazolo[3,4-d]pyrimidin-1-yl)piperidin-1-yl)methyl)piperidin-1-yl)ethyl)piperidin-1-yl)-1-oxoisoindolin-2-yl)piperidine-2,6-dione], the IC50 in the test on Mino cells (Homo sapiens, MINO) was 1000 to 10000 nM; in the test with JeKo-1 cells (Homo sapiens) it was less than 1000 nM. For the same molecule, the Dmax on BTK is more than 90%. Further, the DC50 on BTK (setting [2]) lay within 10 to 50 nM.

On to `Nc1ncnc2c1c(-c1ccc(Oc3ccccc3)cc1)nn2C1CCN(CC2CCN(CCN3CCN(c4ccc5c(c4)C(=O)N(C4CCC(=O)NC4=O)C5=O)CC3)CC2)CC1` (centres unmarked) [Compound 203, 5-(4-(2-(4-((4-(4-amino-3-(4-phenoxyphenyl)-1H-pyrazolo[3,4-d]pyrimidin-1-yl)piperidin-1-yl)methyl)piperidin-1-yl)ethyl)piperazin-1-yl)-2-(2,6-dioxopiperidin-3-yl)isoindoline-1,3-dione], for which the IC50 was in the range of 1000 to 10000 nM in the test with Mino cells (Homo sapiens, MINO) and 1000 to 10000 nM in the test with JeKo-1 cells (Homo sapiens). Further, at BTK, the Dmax was more than 90%. Moreover, the DC50 at BTK (setting [2]) lay in the range of 10 to 50 nM.

Take `Nc1ncnc2c1c(-c1ccc(Oc3ccccc3)cc1)nn2C1CCN(CC2CCN(CCN3CCN(c4ccc5c(c4)CN(C4CCC(=O)NC4=O)C5=O)CC3)CC2)CC1` (centres unmarked) [Compound 204, 3-(5-(4-(2-(4-((4-(4-amino-3-(4-phenoxyphenyl)-1H-pyrazolo[3,4-d]pyrimidin-1-yl)piperidin-1-yl)methyl)piperidin-1-yl)ethyl)piperazin-1-yl)-1-oxoisoindolin-2-yl)piperidine-2,6-dione]: the IC50 was less than 1000 nM in the test with Mino cells (Homo sapiens, MINO) and 1000 to 10000 nM with JeKo-1 cells (Homo sapiens). In addition, the Dmax at BTK was more than 90%. For the same molecule, the DC50 at BTK (setting [2]) lay in the range of 10 to 50 nM.

For `Nc1ncnc2c1c(-c1ccc(Oc3ccccc3)cc1)nn2C1CCN(CC2CCN(CCN3CCC(c4ccc5c(c4)C(=O)N(C4CCC(=O)NC4=O)C5=O)CC3)CC2)CC1` (centres unmarked) [Compound 205, 5-(1-(2-(4-((4-(4-amino-3-(4-phenoxyphenyl)-1H-pyrazolo[3,4-d]pyrimidin-1-yl)piperidin-1-yl)methyl)piperidin-1-yl)ethyl)piperidin-4-yl)-2-(2,6-dioxopiperidin-3-yl)isoindoline-1,3-dione], the IC50 in the test with Mino cells (Homo sapiens, MINO) was less than 1000 nM; in the test on JeKo-1 cells (Homo sapiens), 1000 to 10000 nM. On BTK, the maximal degradation (Dmax) is more than 90%. Besides, on BTK (setting [2]), the 50% degradation concentration (DC50) lay within 10 to 50 nM.
